Assay results published in patent publication EP1598418A1, “STABILISED COMPOSITION FOR FLUORIMETRIC, COLORIMETRIC OR CHEMOLUMINESCENT ASSAYS, KITS CONTAINING SAME AND PRODUCTION METHOD THEREOF” (BIOTOOLS BIOTECHNOLOGICAL & MEDICAL LABORATORIES, S.A., priority 2003, dated 2004).

What was measured:
Conditions in all cases: conserved at T 4 °C, vs fresh mixture
FRET probes = assay: Real-time amplification with desiccated, stabilised reaction mixture with FRET probes after storage (Example 1); assay type: biochemical, P. falciparum
[1] = tested on: nucleic acids immobilised in ELISA microplates; assay: Amplification and colorimetric detection with stabilised nucleic acids immobilised in ELISA microplates (Example 10.1)
Scorpion probes = assay: Real-time amplification with desiccated, stabilised reaction mixture with Scorpion probes after storage (Example 4); assay type: biochemical, M. tuberculosis
[2] = tested on: Molecular Beacon (MB) probe; assay: Real-time amplification with desiccated, stabilised reaction mixture with Molecular Beacon probe after storage (Example 3); assay type: biochemical, P. falciparum
[3] = tested on: oligonucleotides chemically modified by including biotin and/or digoxygenin groups; assay: Amplification with desiccated biotin/digoxygenin oligonucleotides and colorimetric ELISA plate assay (Example 7); assay type: biochemical, oncogenic HPV
Experimental: To do so, 4 oligonucleotides were designed that hybridised with the genome of region E6-E7 of oncogenic HPV species.
To do so, an ELISA microplate with a high-binding capacity to streptoavidin (Biospa) was activated following a standard fixing protocol. Then, after blocking the plate by incubation with gelatine, the amplified products of the stabilising mixtures 1, 2 and 3 described in Example 7.A were analysed by a colorimetry assay according to the following experimental process: • A.- Amplification products using an onligonucleotide marked with digoxygenin (mixture 1 in Example 7.A). The biotinated probe A11 was fixed to the plate and the amplified product was hybridised. […] The amplification product was fixed to the plate with the first biotinilate and then hybridised with the first A12 marked with digoxygenin.

[4] = tested on: reaction mixture with SYBR Green; assay: Real-time amplification with desiccated, stabilised reaction mixture with SYBR Green after storage (Example 5); assay type: biochemical, oncogenic papillomaviruses
Experimental: To test the efficiency of intercalated fluorophores such as SYBR Green included in desiccated and stabilised reaction mixtures, reaction mixtures were prepared for amplifying a 250 bp fragment corresponding to region E6-E7 of oncogenic papillomaviruses, using the same reagents as described in Example 1. In this case the unit "DNA Engine OPTICON™ 2 System" (MJ Research) was used. […] Also to each phial was added […] of SYBR Green 1 (Molecular probes).
Various tubes were prepared as described above, adding to each the suitable volume of each stabilising mixture shown in Table 1.
In parallel, in order to check the evolution of the activity of the desiccated tubes, DNA samples were amplified using a fresh mixture in the same amplification conditions.
The result of the amplification reaction was analysed in every case by inspecting the fluorescence curve and determining the crossing point, following the instructions of the equipment software, for each reaction tube both fresh and desiccated and stabilised. […] The samples of patients infected with oncogenic HPV gave positive results in every case, while patients infected with non-oncogenic HPV, or not infected with HPV, gave negative results in every case.

[5] = tested on: probes marked with biotin or digoxygenin groups; assay: Synthesis of digoxygenin-marked probes with desiccated mixtures and molecular hybridisation test (Example 9)
[6] = tested on: nucleic acids immobilised in modified glasses; assay: Colorimetric assay of stabilised nucleic acids immobilised in modified glasses (Example 10.3); assay type: biochemical, HPV 16
Experimental: Approach 1. Stabilisation of supports with previously fixed nucleic acids. HPV specific probes were fixed to glass supports pre-treated with polylysiun, aldehyde, epoxy, superepoxy and silane. To do so, in each support slide 1 microlitre spots were applied of the solution of each oligonucleotide at a concentration of 20 µM in the conditions indicated for each glass format. The slides with the immobilised oligonucleotides were then coated with a thin layer of each of the stabilising mixtures and then desiccated in a vacuum oven at 25°C and 50 mbar pressure.
(§1) Approach 2. Fixation to the slides of the nucleic acids pre-mixed with the stabilising mixtures. A mixture was prepared of each of the probes with the suitable volumes of the stabilising mixtures described in Table 1. Then the mixtures of oligonucleotides were applied to the various slides with the fixing conditions indicated for each glass format.
To test the viability of each slide prepared, a colorimetric assay was performed with formation of precipitate products. To do so, the slides were washed for 5 minutes in PBS 1X at room temperature to eliminate the protective layer. Then the slides were incubated in the presence of an amplified and previously denatured HPV 16 product using the probes A11 and A12.

[7] = tested on: Anti-digoxygenin antibodies; assay: Colorimetric assay of stabilised proteins immobilised in modified glasses (Example 10.4); assay type: biochemical, P. falciparum
Experimental: To test the possibility of stabilising proteins that have been previously immobilised in pre-treated glass supports, the usual format of microarray systems, two different alternatives were tested as in the previous experiment.
Approach 1. Stabilisation of supports with previously fixed protein. Anti-digoxygenin antibodies were fixed to glass supports pre-treated with aldehyde. To do so, in each support slide 1 microlitre spots were applied of the solution of each protein at a concentration of 30 ng/µl. The slides with the immobilised protein were then coated with a thin layer of each of the stabilising mixtures and then desiccated in a vacuum oven at 25°C and 50 mbar pressure.
as §1, with “protein” for “nucleic acids”, “protein” for “oligonucleotides”
To test the viability of each slide prepared, a colorimetric assay was performed with formation of precipitate products. To do so, the slides were washed for 5 minutes in PBS 1X at room temperature to eliminate the protective layer.

antidigoxygenin antibody = assay: Colorimetry assay of stabilised protein immobilised in ELISA microplates (Example 10.2); assay type: biochemical, HPV
Experimental: To do so each dimple was incubated with 1µg of antidigoxygenin antibody (Roche).
The amplified product was incubated for 30 minutes in the dimples with the antibody immobilised. The amplified products immobilised in the plate by the union of the digoxygenin group of the amplicons and the immobilised anti-digoxygenin group were analysed by a colorimetric assay. […] The colorimetric reaction was finally analysed by measuring absorption at 415 nm.

TaqMan probes = assay: Real-time amplification with desiccated, stabilised reaction mixture with TaqMan probes after storage (Example 2); assay type: biochemical, P. falciparum
[8] = tested on: DTCS Quick Start Master Mix; assay: Sequencing reaction with desiccated, stabilised mixture with fluorescent terminators after storage (Example 6); assay type: biochemical, human papillomavirus
Experimental: To test the possibility of gelling reaction mixtures for sequencing nucleic acids the CEQ 200 Dye Terminator Cycle Sequencing (DTCS) Quick Start Kit (Beckman Coulter) was employed, which uses a PCR sequencing system in a single tube by incorporating four different fluorescent terminators. The sequencing reactions were later analysed in a CEQ 2000 XL DNA Analysis System (Beckman Coulter) capillary electrophoresis automatic sequencing system.
Reaction mixtures were prepared containing 4 microlitres of DTCS Quick Start Master Mix, 1 microlitre of universal primer M13-17 and the suitable volume of each stabilising mixture shown in Table 1.
In parallel, in order to check the evolution of the activity of the desiccated and stabilised tubes, the same plasmid was sequenced using a fresh sequencing mixture in standard conditions. Finally, the sequencing reactions were analysed in the CEQ 200XL system following the supplier's instructions.

[9] = tested on: streptoavidin conjugated with HRP (Str-HRP) and anti-digoxygenin conjugated with alkaline phospatase (anti-DIG-AP); assay: Colorimetric ELISA plate activity test of desiccated, stabilised conjugates (Example 8); assay type: biochemical, HPV 16
Experimental: In 0.2 ml amplification tubes were added 100 microlitres of a 1/250 dilution in a blocking solution of the conjugate Str-HRP (Biospa). In parallel, 0.2 ml phials were prepared in which 100 microlitres were added of a 1/250 dilution in a blocking solution of anti-DIG-AP (Sigma).
For the activity assay of the conjugate anti-DIG-AP an ELISA plate was used in which the dimples had been previously coated with streptoavidin. For the activity assay of conjugate Str-HRP a plate was used instead with dimples previously coated with anti-DIG antibodies. The amplified products were incubated in each plate to allow the immobilisation of the amplicons in the plate.

SMILES	activity of stabilising mixtures (FRET probes)	activity of stabilising mixtures [1]	activity of stabilising mixtures (Scorpion probes)	activity of stabilising mixtures [2]	activity of stabilising mixtures [3]	activity of stabilising mixtures [4]	activity of stabilising mixtures [5]	activity of stabilising mixtures [6]	activity of stabilising mixtures [7]	activity of stabilising mixtures (antidigoxygenin antibody)	activity of stabilising mixtures (TaqMan probes)	activity of stabilising mixtures [8]	activity of stabilising mixtures [9]
OC[C@H]1O[C@@](CO)(O[C@H]2O[C@H](CO)[C@@H](O)[C@H](O)[C@H]2O)[C@@H](O)[C@@H]1O [Sucrose]	+ (+, weak positive, under 50% of the activity of the fresh mixture)	+ (+, weak positive, under 50% of the activity of the fresh mixture)	+ (+, weak positive, under 50% of the activity of the fresh mixture)	+ (+, weak positive, under 50% of the activity of the fresh mixture)	+ (+, weak positive, under 50% of the activity of the fresh mixture)	+ (+, weak positive, under 50% of the activity of the fresh mixture)	+ (+, weak positive, under 50% of the activity of the fresh mixture)	+ (+, weak positive, under 50% of the activity of the fresh mixture)	+ (+, weak positive, under 50% of the activity of the fresh mixture)	+ (+, weak positive, under 50% of the activity of the fresh mixture)	+ (+, weak positive, under 50% of the activity of the fresh mixture)	+ (+, weak positive, under 50% of the activity of the fresh mixture)	+ (+, weak positive, under 50% of the activity of the fresh mixture)
OC[C@H]1O[C@@](CO)(O[C@H]2O[C@H](CO)[C@@H](O)[C@H](O)[C@H]2O)[C@@H](O[C@H]2O[C@H](CO)[C@@H](O)[C@H](O)[C@H]2O)[C@@H]1O [Melezitose]	+ (+, weak positive, under 50% of the activity of the fresh mixture)	+ (+, weak positive, under 50% of the activity of the fresh mixture)	+ (+, weak positive, under 50% of the activity of the fresh mixture)	+ (+, weak positive, under 50% of the activity of the fresh mixture)	+ (+, weak positive, under 50% of the activity of the fresh mixture)	+ (+, weak positive, under 50% of the activity of the fresh mixture)	+ (+, weak positive, under 50% of the activity of the fresh mixture)	+ (+, weak positive, under 50% of the activity of the fresh mixture)	+ (+, weak positive, under 50% of the activity of the fresh mixture)	+ (+, weak positive, under 50% of the activity of the fresh mixture)	+ (+, weak positive, under 50% of the activity of the fresh mixture)	+ (+, weak positive, under 50% of the activity of the fresh mixture)	+ (+, weak positive, under 50% of the activity of the fresh mixture)
OCC(O)CO [Glycerol]	++ (++, positive with 50-90% of the activity of the fresh mixture)	++ (++, positive with 50-90% of the activity of the fresh mixture)	–	++ (++, positive with 50-90% of the activity of the fresh mixture)	++ (++, positive with 50-90% of the activity of the fresh mixture)	–	++ (++, positive with 50-90% of the activity of the fresh mixture)	++ (++, positive with 50-90% of the activity of the fresh mixture)	++ (++, positive with 50-90% of the activity of the fresh mixture)	++ (++, positive with 50-90% of the activity of the fresh mixture)	++ (++, positive with 50-90% of the activity of the fresh mixture)	++ (++, positive with 50-90% of the activity of the fresh mixture)	++ (++, positive with 50-90% of the activity of the fresh mixture)
OC[C@@H](O)[C@@H](O)[C@H](O)[C@@H](O)CO [Sorbitol]	++ (++, positive with 50-90% of the activity of the fresh mixture)	++ (++, positive with 50-90% of the activity of the fresh mixture)	–	++ (++, positive with 50-90% of the activity of the fresh mixture)	++ (++, positive with 50-90% of the activity of the fresh mixture)	–	++ (++, positive with 50-90% of the activity of the fresh mixture)	++ (++, positive with 50-90% of the activity of the fresh mixture)	++ (++, positive with 50-90% of the activity of the fresh mixture)	++ (++, positive with 50-90% of the activity of the fresh mixture)	++ (++, positive with 50-90% of the activity of the fresh mixture)	++ (++, positive with 50-90% of the activity of the fresh mixture)	++ (++, positive with 50-90% of the activity of the fresh mixture)
